Measurements taken from patent US11046697B2, “Compounds and compositions useful for treating disorders related to NTRK” (BLUEPRINT MEDICINES CORPORATION, priority 2015, dated 2021).
Like-named read-outs stand apart in the source and are kept apart here.

Legend:
[1] = target: T1, wild type NTRK1 enzyme (Homo sapiens, UniProt P04629); assay: NTRK1 Wild Type Assay at 1 mM ATP; format: biochemical; settings: 1 mM ATP; read-out: Enz NTRK1 IC50
T1 construct: purchased BPS Bioscience 40280
Method: NTRK1 Wild Type Assay at 1 mM ATP
The reaction was stopped by the addition of 70 μL of Stop buffer (100 mM HEPES pH 7.5, 0.015% Brij 35, 35 mM EDTA and 0.2% of Coating Reagent 3 (Caliper Lifesciences)). The plate was then read on a Caliper EZReader 2 (protocol settings: −1.7 psi, upstream voltage −500, downstream voltage −3000, post sample sip 35s).

[2] = tested on: KM12 wild type colon carcinoma cell line harboring the TPM3-NTRK1 fusion protein; assay: NTRK wild type cellular assay (CellTiter-Glo growth inhibition); format: cell-based; settings: for IC50: 72 hr, CellTiter-Glo, read-out: KM12 (WT) IC50
Method: (§1) NTRK Wild Type and G595R Mutant Cellular Assays Protocol
(§2) KM12 wild type colon carcinoma cell line harboring the TPM3-NTRK1 fusion protein was obtained from the National Cancer Institute (NCI). This line has been previously shown to be dependent upon the NTRK activity derived from the NTRK fusion protein for growth and survival. […] Cells were first plated in 384-well plates at 1000 cells/well in complete media (10% FBS and 1% pen/strep) and incubated overnight at 37° C. Cells were then dosed with test articles at varying concentrations using the Bravo liquid handling system. […] Each compound was run in duplicate per plate. […] 72 hr after dosing, assay plates were developed using CellTiter-Glo (Promega) and resultant luminescence was read on the Envision plate reader. IC50 determinations were calculated using a 4-parameter curve fitting algorithm

[3] = tested on: KM12 Cliff (G595R) cell line; assay: NTRK G595R mutant cellular assay (CellTiter-Glo growth inhibition); format: cell-based; settings: for IC50: 72 hr, CellTiter-Glo
Method: as §1, §2

T1 sequence (P04629 440-796 limits assumed): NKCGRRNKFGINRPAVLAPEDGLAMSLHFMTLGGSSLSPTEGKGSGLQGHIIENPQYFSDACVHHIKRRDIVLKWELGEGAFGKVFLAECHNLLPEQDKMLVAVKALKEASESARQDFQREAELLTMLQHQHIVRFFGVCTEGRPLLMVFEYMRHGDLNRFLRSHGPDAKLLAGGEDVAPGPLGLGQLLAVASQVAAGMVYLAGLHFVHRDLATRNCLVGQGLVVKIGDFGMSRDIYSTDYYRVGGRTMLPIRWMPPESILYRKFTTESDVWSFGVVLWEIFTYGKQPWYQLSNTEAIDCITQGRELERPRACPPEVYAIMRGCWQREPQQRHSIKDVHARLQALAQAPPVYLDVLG

IC50 [1] [nM]	IC50 ([2]; Homo sapiens, KM12, 72 h) [nM]	IC50 [2] [nM]	GI50 ([2]; Homo sapiens, KM12, wild-type NTRK fusion cells, read-out: NTRK wt Cellular GI50) [nM]	SMILES	IC50 ([3]; Homo sapiens, KM12, 72 h) [nM]	IC50 [3] [nM]	GI50 ([3]; Homo sapiens, KM12, G595R mutant NTRK fusion cells) [nM]
10 to 100	10 to 100	–	–	O=C(NCc1cc(F)ccc1F)c1n[nH]c2ncnc(N[C@@H]3C[C@@H](F)C[C@H]3O)c12 (relative stereo) [Compound 17]	100 to 1000	–	–
> 1000	> 1000	–	–	O=C(NCc1cc(F)ccc1F)c1n[nH]c2ncnc(N[C@@H]3CC[C@@H](F)[C@H]3O)c12 (relative stereo) [Compound 19]	> 1000	–	–
> 1000	> 1000	–	–	O=C(NCc1cc(F)ccc1F)c1n[nH]c2ncnc(N[C@@H]3[C@H]4C[C@H]4C[C@H]3O)c12 [Compound 3]	> 1000	–	–
100 to 1000	–	100 to 1000	–	O=C(NCc1cc(F)ccc1F)c1n[nH]c2ncnc(NC3CCC(O)C3O)c12 (stereo not shown) [Compound 10]	–	> 1000	–
100 to 1000	100 to 1000	–	–	O=C(NCc1cc(F)ccc1F)c1n[nH]c2ncnc(NC3CC(O)CC3O)c12 (stereo not shown) [Compound 12]	> 1000	–	–
100 to 1000	–	100 to 1000	–	O=C(NCc1cc(F)ccc1F)c1n[nH]c2ncnc(NC3CC(F)CC3O)c12 (stereo not shown) [Compound 14]	–	100 to 1000	–
< 10	–	10 to 100	–	Cc1ccc(F)cc1CN(C)C(=O)c1n[nH]c2ncnc(NC3CCC(O)C3O)c12 (stereo not shown) [Compound 23]	–	10 to 100	–
10 to 100	100 to 1000	–	–	COc1ccc(F)cc1CNC(=O)c1n[nH]c2ncnc(N[C@@H]3COCC[C@H]3O)c12 [Compound 24]	100 to 1000	–	–
10 to 100	10 to 100	–	–	O=C(NCc1cc(F)ccc1F)c1n[nH]c2ncnc(N[C@H]3[C@H](O)[C@H](O)[C@@H]4C[C@@H]43)c12 [Compound 25]	100 to 1000	–	–
< 10	–	10 to 100	–	O=C(NC(CO)c1cc(F)ccc1F)c1n[nH]c2ncnc(NC3CCCC3O)c12 (stereo not shown) [Compound 27]	–	10 to 100	–
< 10	10 to 100	–	–	CN(Cc1cc(F)ccc1F)C(=O)c1n[nH]c2ncnc(N[C@@H]3COCC[C@H]3O)c12 [Compound 29]	10 to 100	–	–
100 to 1000	10 to 100	–	–	C[C@@H](NC(=O)c1n[nH]c2ncnc(N[C@@H]3COCC[C@H]3O)c12)c1cc(F)ccc1F [Compound 30]	100 to 1000	–	–
100 to 1000	–	100 to 1000	–	CC(NC(=O)c1n[nH]c2ncnc(NC3CCOCC3O)c12)c1cc(F)ccc1F (stereo not shown) [Compound 31]	–	100 to 1000	–
10 to 100	–	10 to 100	–	CC(NC(=O)c1n[nH]c2ncnc(NC3CCC(O)C3O)c12)c1cc(F)ccc1F (stereo not shown) [Compound 34]	–	100 to 1000	–
100 to 1000	–	100 to 1000	–	CC(NC(=O)c1n[nH]c2ncnc(NC3CCC(O)C3O)c12)c1cc(F)ccc1F (stereo not shown) [Compound 35]	–	> 1000	–
10 to 100	100 to 1000	–	–	O=C(NCc1cc(F)ccc1Cl)c1n[nH]c2ncnc(N[C@@H]3CC[C@@H](O)[C@H]3O)c12 [Compound 36]	100 to 1000	–	–
100 to 1000	–	100 to 1000	–	O=C(NCc1cc(F)cc(Cl)c1)c1n[nH]c2ncnc(NC3CCC(O)C3O)c12 (stereo not shown) [Compound 38]	–	100 to 1000	–
< 10	10 to 100	–	–	[2H]C([2H])([2H])N(Cc1cc(F)ccc1F)C(=O)c1n[nH]c2ncnc(N[C@@H]3COCC[C@H]3O)c12 [Compound 39]	10 to 100	–	–
10 to 100	–	100 to 1000	–	O=C(NCc1cc(F)cc(F)c1F)c1n[nH]c2ncnc(N[C@@H]3COCC[C@H]3O)c12 [Compound 40]	–	100 to 1000	–
100 to 1000	–	> 1000	–	O=C(NCc1cc(F)ccc1F)c1n[nH]c2ncnc(NC3CC(F)(F)CC3O)c12 (stereo not shown) [Compound 42]	–	> 1000	–
10 to 100	–	10 to 100	–	O=C(NCc1cc(F)ccc1F)c1n[nH]c2ncnc(NC3CC(F)(F)CC3O)c12 (stereo not shown) [Compound 43]	–	100 to 1000	–
10 to 100	–	10 to 100	–	CN(Cc1cc(F)cc(C#N)c1)C(=O)c1n[nH]c2ncnc(NC3CCC(O)C3O)c12 (stereo not shown) [Compound 44]	–	100 to 1000	–
< 10	< 10	–	–	O=C(c1n[nH]c2ncnc(N[C@@H]3CCC[C@H]3O)c12)N1CCC[C@@H]1c1cc(F)ccc1F [Compound 45, ((R)-2-(2,5-difluorophenyl)pyrrolidin-1-yl)(4-(((1R,2R)-2-hydroxycyclopentyl)amino)-1H-pyrazolo[3,4-d]pyrimidin-3-yl)methanone]	< 10	–	–
< 10	–	< 10	–	O=C(c1n[nH]c2ncnc(NC3CCCC3O)c12)N1CC(F)CC1c1cncc(F)c1 (stereo not shown) [Compound 46]	–	< 10	–
10 to 100	10 to 100	–	–	COc1cc(F)cc(CN(C)C(=O)c2n[nH]c3ncnc(N[C@@H]4CC[C@@H](O)[C@H]4O)c23)c1 [Compound 48]	100 to 1000	–	–

More lines, now with the values behind:

SMILES	IC50 [1] [nM]	IC50 ([2]; Homo sapiens, KM12, 72 h) [nM]	IC50 [2] [nM]	GI50 ([2]; Homo sapiens, KM12, wild-type NTRK fusion cells, read-out: NTRK wt Cellular GI50) [nM]	IC50 ([3]; Homo sapiens, KM12, 72 h) [nM]	IC50 [3] [nM]	GI50 ([3]; Homo sapiens, KM12, G595R mutant NTRK fusion cells) [nM]
O=C(NCc1cc(F)ccc1F)c1n[nH]c2ncnc(N[C@@H]3CCC[C@H]3O)c12 [Compound 1]	10 to 100	10 to 100	–	–	10 to 100	–	–
Cc1ccc(F)cc1CNC(=O)c1n[nH]c2ncnc(N[C@@H]3CC[C@@H](O)[C@H]3O)c12 [Compound 2]	100 to 1000	100 to 1000	–	–	100 to 1000	–	–
O=C(NCc1cc(F)ccc1F)c1n[nH]c2ncnc(N[C@@H]3C[C@H]4C[C@H]4[C@H]3O)c12 [Compound 4]	100 to 1000	> 1000	–	–	> 1000	–	–
CN(Cc1cncc(F)c1)C(=O)c1n[nH]c2ncnc(N[C@@H]3CC[C@@H](O)[C@H]3O)c12 [Compound 5]	100 to 1000	100 to 1000	–	–	100 to 1000	–	–
CN(Cc1cc(F)ccc1F)C(=O)c1n[nH]c2ncnc(N[C@@H]3CCC[C@H]3O)c12 [Compound 6]	< 10	10 to 100	–	–	10 to 100	–	–
C[C@@H](NC(=O)c1n[nH]c2ncnc(N[C@@H]3CCC[C@H]3O)c12)c1cc(F)ccc1F [Compound 7]	10 to 100	10 to 100	–	–	10 to 100	–	–
O=C(NCc1cc(F)ccc1F)c1n[nH]c2ncnc(N[C@@H]3COCC[C@H]3O)c12 [Compound 8]	10 to 100	10 to 100	–	–	100 to 1000	–	–
O=C(NCc1cc(F)ccc1F)c1n[nH]c2ncnc(NC3CCC(O)C3O)c12 (stereo not shown) [Compound 9]	10 to 100	–	10 to 100	–	–	100 to 1000	–
O=C(NCc1cc(F)ccc1F)c1n[nH]c2ncnc(N[C@@H]3CCOC[C@H]3O)c12 [Compound 11]	100 to 1000	100 to 1000	–	–	100 to 1000	–	–
O=C(NCc1cc(F)ccc1F)c1n[nH]c2ncnc(NC3CC(O)CC3O)c12 (stereo not shown) [Compound 13]	10 to 100	–	10 to 100	–	–	100 to 1000	–
O=C(NCc1cc(F)ccc1F)c1n[nH]c2ncnc(NC3CC(F)CC3O)c12 (stereo not shown) [Compound 15]	100 to 1000	–	100 to 1000	–	–	> 1000	–
O=C(NCc1cc(F)ccc1F)c1n[nH]c2ncnc(NC3CC(F)CC3O)c12 (stereo not shown) [Compound 16]	100 to 1000	–	> 1000	–	–	> 1000	–
O=C(NCc1cc(F)ccc1F)c1n[nH]c2ncnc(NC3CCC(F)C3O)c12 (stereo not shown) [Compound 18]	100 to 1000	–	100 to 1000	–	–	> 1000	–
N#Cc1cc(F)cc(CNC(=O)c2n[nH]c3ncnc(N[C@@H]4CC[C@@H](O)[C@H]4O)c23)c1 [Compound 22]	100 to 1000	> 1000	–	–	> 1000	–	–
CCN(Cc1cc(F)ccc1F)C(=O)c1n[nH]c2ncnc(NC3CCCC3O)c12 (stereo not shown) [Compound 26]	10 to 100	–	10 to 100	–	–	100 to 1000	–
CN(Cc1cc(F)ccc1F)C(=O)c1n[nH]c2ncnc(NC3CCC(O)C3O)c12 (stereo not shown) [Compound 28]	< 10	–	10 to 100	–	–	10 to 100	–
O=C(NCc1cc(F)ccc1F)c1n[nH]c2ncnc(N[C@@H]3CCC[C@@H](O)[C@H]3O)c12 [Compound 32]	10 to 100	100 to 1000	–	–	100 to 1000	–	–
CN(Cc1cc(F)cc(F)c1)C(=O)c1n[nH]c2ncnc(NC3CCC(O)C3O)c12 (stereo not shown) [Compound 33]	10 to 100	–	10 to 100	–	–	10 to 100	–
O=C(NCc1cc(F)ccc1Cl)c1n[nH]c2ncnc(N[C@@H]3COCC[C@H]3O)c12 [Compound 37]	10 to 100	–	100 to 1000	–	–	100 to 1000	–
O=C(NCc1cc(F)cc(F)c1F)c1n[nH]c2ncnc(N[C@@H]3CC[C@@H](O)[C@H]3O)c12 [Compound 41]	10 to 100	100 to 1000	–	–	100 to 1000	–	–
O=C(NC1(c2cc(F)ccc2F)CC1)c1n[nH]c2ncnc(N[C@@H]3COCC[C@H]3O)c12 [Compound 47]	100 to 1000	–	100 to 1000	–	–	100 to 1000	–
O=C(c1n[nH]c2ncnc(NC3CCOCC3O)c12)N1CC(F)CC1c1cc(F)ccc1OC(F)F (stereo not shown) [Compound 238]	–	–	10 to 100	–	–	10 to 100	–
C[C@@H](Oc1cc(-c2cnn(C3CCNCC3)c2)cnc1N)c1c(Cl)ccc(F)c1Cl [Crizotinib, crizotinib, reference compound]	–	–	–	87	–	–	9000
